This note sets out measurements from patent US10071098B2, “Compositions useful for treating herpes simplex labialis and/or herpes esophagitis, and methods using same” (DREXEL UNIVERSITY, priority 2014, dated 2018).

Assay [1] concerns HSV-1 strain KOS. The assay is described as follows: HSV-1 replication in OKF6 cells (qPCR genome copy number and viral yield). In kind it is cell-based. The note with it: for HSV-1 replication over time course of lytic infection (genome copy number, viral yield): MOI=0.1, FIGS. 8A-8B; for HSV-1 replication as measured by qPCR and viral yield, dose dependence: MOI=0.1, analysis at 20 hours post infection, FIGS. 7A-7C; for effect on reducing HSV-1 replication when combined with acyclovir: low dose of inhibitor combined with low doses of acyclovir, MOI=0.1, FIGS. 11A-11B. Here is the method: (§1) All cells were cultured at 37° C. and 5% CO2 and supplemented with 100 U/mL penicillin and 100 U/mL streptomycin. OKF6/TERT2 human oral mucosal keratinocyte cells were cultured in GIBCO Keratinocyte serum free medium (K-sfm) supplemented with bovine pituitary extract, epidermal growth factor, and calcium chloride (Life Technologies Carlsbad, Calif.). These cells are immortalized by expression of hTERT (Dickson, et al., 2000, Mol. Cell. Biol. 20(4):1436-1447). EPC2 human esophageal epithelial cells were cultured in K-sfm (Carlsbad, Calif.). KOS strain (Smith, Proc. Soc. Exp. Biol. Med. Soc. Exp. Biol. Med. 115:814-816) of HSV-1 was used in all infections. All viral stocks were titered on CV-1 monolayers.
(§2) Subconfluent monolayers of cells were grown in six-well plates. Drug treatments were administered 60 minutes prior to infection and continued for the entire duration of each experiment. Infections with KOS strain of HSV-1 were carried out in six-well plates in a 200 μL inoculum volume at 37° C. for 1 hour with intermittent rocking. The cells were then rinsed and overlaid with fresh medium.
(§3) Unless indicated otherwise, KU-55933 (Batch No. 5, 99.7% purity; Tocris Bioscience, Bristol, UK) and Chk2 Inhibitor II (Sigma-Aldrich, St. Louis, Mo.) were used at 10 μM final concentration, phosphonoacetic acid (PAA) at 400 μg/mL (Sigma-Aldrich, St. Louis, Mo.), and acyclovir at 50 μg/mL (Sigma-Aldrich). KU-55933 and Chk2 Inhibitor II were dissolved in dimethyl sulfoxide (DMSO), and the final concentration of DMSO for KU-55933, Chk2 Inhibitor II, and mock treatments for all in vitro experiments was 0.1%.
(§4) Viral genome replication and transcription were measured by quantitative PCR (qPCR). Total DNA and RNA from infected cells were isolated using the DNeasy Blood & Tissue Kit and the RNeasy Mini Kit, respectively (QIAGEN, Hilden, Germany). RNA was converted to cDNA using qScript (Quanta BioSciences, Gaithersburg, Md.). Real-time qPCR was performed with SYBR Green (Bio-Rad, Hercules, Calif.). Target primers for UL30 (DNA polymerase catalytic subunit) and reference primers for glyceraldehyde 3-phosphate dehydrogenase (GAPDH) were used to measure genome replication. Transcription of the three gene families was measured with primers for RL2 (ICP0), UL30 (DNA polymerase catalytic subunit), UL23 (thymidine kinase), and UL44 (gC), with reference primers for the 18S ribosomal RNA (rRNA).

For assay [2], the system named is HSV-1 strain KOS. The assay is described as follows: Protein synthesis of HSV-1 factors in infected OKF6 cells (Western blot). In kind it is cell-based. Conditions: for protein synthesis of HSV-1 early gene ICP8 / protein synthesis of HSV-1 immediate early gene ICP0 / protein synthesis of HSV-1 leaky-late gene gB / protein synthesis of HSV-1 true-late gene gC: MOI=5, FIGS. 9A-9B; for gC level, inhibitor applied before infection or up to 1 hour post infection / gC level, inhibitor applied between 2 to 3 hours post infection: MOI=5, FIGS. 10A-10B; for gC level, inhibitor applied 4 hours post infection: MOI=5, compared to wild type infection, FIGS. 10A-10B. The procedure: as §1
Subconfluent monolayers of cells were grown in six-well plates. […] Infections with KOS strain of HSV-1 were carried out in six-well plates in a 200 μL inoculum volume at 37° C. for 1 hour with intermittent rocking. The cells were then rinsed and overlaid with fresh medium.
as §3
Standard protocol was followed for Western blot analysis. Cell lysates were collected in 200 μL Laemmli buffer, vortexed, and boiled at 95° C. for 5 minutes. Protein concentrations were measured by bicinchoninic acid (BCA) assay. SDS-PAGE was followed by transfer onto a polyvinylidene difluoride (PVDF) membrane, which was then blocked in 5% BSA. Primary antibodies against the following proteins were used: ICP0 (mouse monoclonal; Virusys Corporation, Taneytown, Md.), ICP4 and nucleolin (both mouse monoclonal; Santa Cruz Biotechnology, Santa Cruz, Calif.), ICP8 (rabbit polyclonal), glycoprotein B and C (mouse monoclonal and rabbit polyclonal, respectively), ATM and pATM S1981 (rabbit polyclonal and mouse monoclonal, respectively; Rockland), Chk2 and pChk2 T68 (rabbit polyclonal and mouse monoclonal, respectively; Cell Signaling). Blots were stained with secondary antibodies and visualized with the Odyssey near-infrared system (LI-COR, Lincoln, Nebr.).

Assay [3] relates to HSV-1 strain KOS. The assay is described as follows: Transcription of HSV-1 genes in infected OKF6 cells (qPCR). It is filed as cell-based. Conditions: for effect on viral early factor thymidine kinase: MOI=0.1, FIGS. 9C-9E; for transcription of true-late gene gC: qPCR, MOI=0.1, FIG. 9E. Here is the method:
as §1, §2, §3, §4

In assay [4] the test system is acyclovir-resistant strain of HSV-1, dlspTK. The assay is described as follows: Replication of acyclovir-resistant HSV-1 in OKF6 cells. Conditions: MOI=0.1, FIGS. 12A-12B. It is filed as cell-based.
A further assay relates to HSV-1. The assay is described as follows: In vivo model of HSV-1 lip infection (herpes simplex labialis) in mice. Conditions: BALB/c mice infected on the lower lip; applied every 4 hours for first 12 hours, then every 8 hours for 5 days; FIGS. 13A-13B. Here is the method: KU-55933 and Chk2 Inhibitor II were also efficacious at reducing HSV-1 in an in vivo model of infection (FIGS. 13A-13B). BALB/c mice were infected with HSV-1 on the lower lip, and KU-55933 or Chk2 Inhibitor II was applied every 4 hours for the first 12 hours post infection followed by treatments every 8 hours for the next 5 days. The mice were scored based on the severity of the symptoms, and tracked over the course of infection.

A further assay deals with ATM. The assay is described as follows: ATM activation in HSV-1-infected OKF6 cells (Western blot). It is filed as cell-based, human. The note with it: MOI=5.0, FIG. 6. A general note: Immunoblotting shows a protein as a band on a membrane.

Protocol for ATM: All cells were cultured at 37° C. and 5% CO2 and supplemented with 100 U/mL penicillin and 100 U/mL streptomycin. OKF6/TERT2 human oral mucosal keratinocyte cells were cultured in GIBCO Keratinocyte serum free medium (K-sfm) supplemented with bovine pituitary extract, epidermal growth factor, and calcium chloride (Life Technologies Carlsbad, Calif.). […] KOS strain (Smith, Proc. Soc. Exp. Biol. Med. Soc. Exp. Biol. Med. 115:814-816) of HSV-1 was used in all infections. All viral stocks were titered on CV-1 monolayers.
Unless indicated otherwise, KU-55933 (Batch No. 5, 99.7% purity; Tocris Bioscience, Bristol, UK) and Chk2 Inhibitor II (Sigma-Aldrich, St. Louis, Mo.) were used at 10 μM final concentration, phosphonoacetic acid (PAA) at 400 μg/mL (Sigma-Aldrich, St. Louis, Mo.), and acyclovir at 50 μg/mL (Sigma-Aldrich). […]
Standard protocol was followed for Western blot analysis. […] Protein concentrations were measured by bicinchoninic acid (BCA) assay. […]

Regarding `NC(=O)c1ccc2[nH]c(-c3ccc(Oc4ccc(Cl)cc4)cc3)nc2c1` [Chk2 Inhibitor II, 2-(4-(4-chlorophenoxy)phenyl)-1H-benzimidazole-5-carboxamide], in the assay with HSV-1 strain KOS [1], the “HSV-1 replication over time course of lytic infection (genome copy number, viral yield)” value is recorded as “reduced HSV-1 replication throughout the entire time course of lytic infection”; the “HSV-1 replication as measured by qPCR and viral yield, dose dependence” value was “reduced HSV-1 replication in a dose dependent manner”; the “effect on reducing HSV-1 replication when combined with acyclovir” value is reported as “additive to greater-than-additive effect”. In the assay with HSV-1 strain KOS [2], the “protein synthesis of HSV-1 early gene ICP8” value is listed as “no impact”, the “protein synthesis of HSV-1 immediate early gene ICP0” value is on record as “no impact”, the “protein synthesis of HSV-1 leaky-late gene gB” value is listed as “no impact” and the “protein synthesis of HSV-1 true-late gene gC” value was “large reduction”. For the same compound, in the assay on HSV-1 strain KOS [2], the “gC level, inhibitor applied before infection or up to 1 hour post infection” value is recorded as “large reduction of gC”; the “gC level, inhibitor applied between 2 to 3 hours post infection” value is “Low levels of gC were produced”; the “gC level, inhibitor applied 4 hours post infection” value is listed as “no impact on gC levels”. In the assay with HSV-1 strain KOS [3], the “effect on viral early factor thymidine kinase” value is reported as “minimal effect” and the “transcription of true-late gene gC” value is listed as “prevent the transcription”. In addition, in assay [4], the “replication (genome copy numbers) of acyclovir-resistant HSV-1 strain dlspTK” value is listed as “greatly reduced replication”. Moreover, in the assay with HSV-1, the “severity of symptoms (score) during the time course of infection” value is “statistically significant decrease in the severity of symptoms”.

Consider `O=c1cc(-c2cccc3c2Sc2ccccc2S3)oc(N2CCOCC2)c1` [KU-55933, 2-(morpholin-4-yl)-6-(thianthren-1-yl)-pyran-4-one], for which the ATM activation entry in the assay on ATM is reported as “inhibited ATM activation”. Also, in the assay on HSV-1 strain KOS [1], the “HSV-1 replication over time course of lytic infection (genome copy number, viral yield)” value is recorded as “reduced HSV-1 replication throughout the entire time course of lytic infection”; the “HSV-1 replication as measured by qPCR and viral yield, dose dependence” value is on record as “reduced HSV-1 replication in a dose dependent manner”; the “effect on reducing HSV-1 replication when combined with acyclovir” value is “additive to greater-than-additive effect”. In addition, in the assay on HSV-1 strain KOS [2], the “protein synthesis of HSV-1 early gene ICP8” value is on record as “no impact”, the “protein synthesis of HSV-1 immediate early gene ICP0” value was “no impact”, the “protein synthesis of HSV-1 leaky-late gene gB” value is listed as “no impact” and the “protein synthesis of HSV-1 true-late gene gC” value is reported as “large reduction”. In addition, in the assay with HSV-1 strain KOS [2], the “gC level, inhibitor applied before infection or up to 1 hour post infection” value was “large reduction of gC”; the “gC level, inhibitor applied between 2 to 3 hours post infection” value is reported as “Low levels of gC were produced”; the “gC level, inhibitor applied 4 hours post infection” value was “no impact on gC levels”. Besides, in the assay on HSV-1 strain KOS [3], the “effect on viral early factor thymidine kinase” value was “minimal effect” and the “transcription of true-late gene gC” value is “reduction”. Moreover, the “replication (genome copy numbers) of acyclovir-resistant HSV-1 strain dlspTK” value in assay [4] was “greatly reduced replication”. For the same compound, the “severity of symptoms (score) during the time course of infection” value in the assay on HSV-1 is “statistically significant decrease in the severity of symptoms”.
